In US20160151403A1, “SMALL MOLECULE MODULATORS OF P53 FAMILY SIGNALING” (The Trustees of the University of Pennsylvania, priority 2006, published 2016):

What was measured:
[1] = tested on: γH2AX; experiment: γH2AX test (DNA damage signaling); format: cell-based; conditions: after treatment
[2] = tested on: HCT116/p53^−/− cells; experiment: Flow cytometry cell cycle profile, HCT116/p53(-/-); format: cell-based, human; conditions: for sub-G1 peak (apoptosis): HCT116/p53^−/−, #17 200 μM, #23 10 μM
Protocol: FIGS. 3A-3F show: Structures (A) of isolated compounds and summary of their effects on the p53 family and transcriptional targets (B). Cell cycle profiles of HCT/p53(+/+) and HCT/p53(−/−) in response to treatment by selected compounds (C-E). The dose of #17 was 200 μM and for #23 it was 10 μM. F, p73 protein levels were elevated in HCT116/p53(−/−) cells in response to treatment by selected compounds at various concentrations as indicated;
Adherent cells in a 6-well plate were trypsinized and collected in 15 ml centrifuge tubes to which were added the originally floating cells. The collected cells were ethanol-fixed and stained with propidium iodide (Sigma, St. Louis, Mo.). The DNA content of the stained cells was then measured using an Epics Elite flow cytometer (Beckman-Coulter, Fullerton, Calif.).
The ability of selected compounds from the chemical library screen to induce apoptosis of human colon tumor cells and the dependence of their effects on endogenous p53 status was further evaluated.

[3] = tested on: HCT116/p53(−/−) xenografts; experiment: In vivo anti-tumor assay, HCT116/p53(-/-) xenografts in Balb/c nude mice; conditions: intra-peritoneal, #1 100 mg/kg, #14 50 mg/kg, #23 10 mg/kg; 7 days after treatment
Protocol: Balb/c nude mice were inoculated subcutaneously with 2 million HCT116/p53(−/−) cells in Matrigel on each flank. 6 mice were used in each group, in each of the two experiments. When the tumor mass reached about 3-5 mm, mice were treated with the compounds alone or following a single dose of TRAIL at 100 μg/mouse in experiment 1. At 7 days after treatment, mice were sacrificed and the tumor masses were weighted. The doses used were 100 mg/kg for #1, 50 mg/kg for #14, and 10 mg/kg for #23;
Balb/c nude mice (Charles River Laboratories, Wilmington, Mass.) were inoculated subcutaneously with 2 million HCT116/p53(−/−) cells in an equal volume of Matrigel. When tumor masses reached about 3-5 mm in diameter, mice were treated with the compounds alone by intraperitoneal injection or following a single intravenous dose of TRAIL at 100 μg/mouse. At 7 days after treatment, mice were sacrificed and the tumor masses were weighed. DLD1/PG13 cells were inoculated subcutaneously with 5 million cells. At 24 hours later mice were treated with selected compounds, and subsequently bioluminescence imaging was carried out after 16 hours as previously described [Wang, W. & El-Deiry, W. S. (2003) Cancer Biol Ther 2, 196-202].
Compounds #1, #14, #17, and #23 were tested in colon-tumor xenograft-bearing mice in order to evaluate their toxicities and potential anti-tumor effects (FIG. 4). […] The initial doses were chosen below maximal tolerated doses based on the NCI DTP toxicology databases for chemical compound testing in vivo so that mice would survive drug administration and allow subsequent evaluation of anti-tumor effects. p53-null HCT116 xenografts were first tested to document anti-tumor effects in p53-deficient tumors and an experiment to simulate therapy of established tumors was designed. A total of 2×10^6 p53-null HCT116 cells were implanted on opposite flanks subcutaneously in each of 6 nude mice in each group. When tumor masses grew to about 3-5 mm in diameter, drugs were administered intra-peritoneally (#1: 100 mg/kg; #14: 50 mg/kg; #23: 10 mg/kg), and on the next day additional groups received intravenous TRAIL (15) (100 μg/mice via the tail vein). Tumor weights were determined at 7 days later. […] Nonetheless in the future it may be possible to modify the structure of #17 or identify doses where synergistic interactions with TRAIL may be observed.

[4] = tested on: p73 in HCT116/p53^−/− cells; experiment: Effect of p73 knockdown (si-p73 retrovirus) on compound-induced p53-responsive transcriptional activity; format: cell-based, human; conditions: retrovirus mediated si-p73, HCT116/p53^−/− cells, FIG. 5D
Protocol: FIGS. 5A-5D show p53 transcriptional activity is induced in DLD1 xenografts and effects of knockdown of p73 by siRNA on drug-induced transcriptional activity. DLD1/PG13 cells were inoculated subcutaneously with 5 million cells. At 24 hours later mice were treated with selected compounds (100 mg/kg for #1, 50 mg/kg for #14 and #17, and 10 mg/kg for #23), and subsequently bioluminescence imaging was carried out after 16 hours. Two weeks later, tumor masses were weighed. A, bioluminescence imaging of p53 transcriptional activity induced in vivo. B, calculated fold-induction of p53 transcriptional activity. C, inhibition of tumor growth by selected compounds. D, effects of si-TAp73 on the transcriptional activity induced by selected compounds;
pBS/U6 vector containing TAp73 RNAi were kindly provided by Leif W. Ellisen (20), Harvard Medical School, from which the expression cassette was removed and recombined to pSIREN-RetroQ (Clontech Laboratories, Inc. Mountain View, Calif.), which was reconstructed to express a blasticidin-resistant marker.
The questioned whether the p53 family member p73 is involved in the p53-responsive transcriptional activity induced by the compounds identified was then tested. p63, the other p53 family member, was not tested, because the TA form of p63 is rarely expressed in malignant and normal tissues except for germ cells of the ovary and testis.

Compound: COc1cccc2c1C(=O)c1c(O)c3c(c(O)c1C2=O)CC(O)(/C(C)=N/O)CC3OC1CC(N)C(O)C(C)O1 (stereo not shown) [#14]
- γH2AX [1]: positive
- sub-G1 peak (apoptosis) [2]: induced a sub-G1 peak characteristic of apoptosis
- anti-tumor effect (tumor weights) [3]: anti-tumor effects were observed
- compound-induced p53-responsive transcriptional activity after knockdown of p73 [4]: suppressed

Compound: CO[C@H]1[C@@H](O)[C@@H](C)O[C@H](O[C@H]2[C@H](Oc3cccc4c(O)c5c(=O)oc6ccc(C)c7c(=O)oc(c34)c5c67)O[C@H](C)[C@H](O)[C@@H]2O)[C@@H]1O [#1]
- γH2AX [1]: not
- sub-G1 peak (apoptosis) [2]: induced a sub-G1 peak characteristic of apoptosis
- anti-tumor effect (tumor weights) [3]: anti-tumor effects were observed
- compound-induced p53-responsive transcriptional activity after knockdown of p73 [4]: suppressed

Compound: COc1cccc2c1C(=N)c1c(O)c3c(c(O)c1C2=O)C[C@@](O)(C(C)=O)C[C@@H]3O[C@H]1C[C@H](N)[C@H](O)[C@H](C)O1 [#23]
- γH2AX [1]: positive
- sub-G1 peak (apoptosis) [2]: induced a sub-G1 peak characteristic of apoptosis
- G1 arrest on apoptosis induction ([2]; p53-null HCT116 cells, compared with wild-type p53-expressing HCT116): greatly reduced G1 arrest
- anti-tumor effect (tumor weights) [3]: anti-tumor effects were observed
- compound-induced p53-responsive transcriptional activity after knockdown of p73 [4]: suppressed
